Data as given in ChEMBL document CHEMBL5233269, “Anticancer potential of spirocompounds in medicinal chemistry: A pentennial expedition” (Eur J Med Chem, 2021).

Assays:
HeLa [1] = test: Cytotoxicity against human HeLa cells incubated for 48 hrs by MTT assay; format: functional, cell-based
HeLa [2] = test: Cytotoxicity against human HeLa cells incubated for 24 hrs by MTT assay; format: functional, cell-based
HT-29 = test: Antiproliferative activity against human HT-29 cells measured after 48 hrs by MTT assay; format: functional, cell-based; details: HT-29, 48 h
HepG2 [3] = test: Antiproliferative activity against human HepG2 cells measured after 48 hrs by MTT assay; format: functional, cell-based; details: HepG2, 48 h
[4] = Antiproliferative activity against human […] cells measured after 48 hrs by MTT assay; format: functional, cell-based
A549 [5] = test: Antiproliferative activity against human A549 cells measured after 48 hrs by MTT assay; format: functional, cell-based; details: A549, 48 h
MCF7 [6] = test: Antiproliferative activity against human MCF7 cells measured after 48 hrs by MTT assay; format: functional, cell-based; details: MCF7, 48 h
HeLa [7] = test: Antiproliferative activity against human HeLa cells measured after 48 hrs by MTT assay; format: functional, cell-based
HL-60 = test: Antiproliferative activity against human HL-60 cells measured after 48 hrs by MTT assay; format: functional, cell-based; details: HL-60, 48 h
SW480 = test: Antiproliferative activity against human SW480 cells measured after 48 hrs by MTT assay; format: functional, cell-based; details: SW480, 48 h
MCF7 [8] = test: Anticancer activity against human MCF7 cells assessed as reduction of cell growth; format: functional, cell-based
PC-3 = test: Anticancer activity against human PC-3 cells assessed as reduction of cell growth; format: functional, cell-based
A-431 = test: Anticancer activity against human A-431 cells; format: functional, cell-based
[9] = Anticancer activity against human MCF-10A cells assessed as reduction of cell growth; format: toxicity, cell-based
L02 = test: Antiproliferative activity against human L02 cells by MTT assay; format: functional, cell-based
HepG2 [10] = test: Antiproliferative activity against human HepG2 cells by MTT assay; format: functional, cell-based
HepG2 [11] = test: Cytotoxicity against human HepG2 cells incubated overnight by MTT assay; format: functional, cell-based
HCT-116 = test: Cytotoxicity against human HCT-116 cells incubated overnight by MTT assay; format: functional, cell-based
MCF7 [12] = test: Inhibition of cell proliferation in human MCF7 cells; format: functional, cell-based
[13] = Inhibition of cell proliferation in human MCF-10A cells at 50 uM by MTT colorimetric cell viability assay relative to control; format: toxicity, cell-based
SMMC-7721 = test: Cytotoxicity against human SMMC-7721 cells assessed as inhibition of tumor cell proliferation incubated for 72 hrs by MTT assay; format: functional, cell-based; details: SMMC-7721, 72 h
MGC-803 = test: Cytotoxicity against human MGC-803 cells assessed as inhibition of tumor cell proliferation incubated for 72 hrs by MTT assay; format: functional, cell-based; details: MGC-803, 72 h
A549 [14] = test: Cytotoxicity against human A549 cells assessed as inhibition of tumor cell proliferation incubated for 72 hrs by MTT assay; format: functional, cell-based; details: A549, 72 h
MCF7 [15] = test: Antiproliferative activity against human MCF7 cells assessed as inhibition of cell viability; format: functional, cell-based
K562 = test: Antiproliferative activity against human K562 cells assessed as inhibition of cell viability; format: functional, cell-based
Ehrlich = test: Antitumor activity against mouse Ehrlich ascites carcinoma xenografted in mouse model assessed tumor growth inhibition relative to control; format: functional; parameters: scale not given: the % may be the effect or the level left
Sarcoma-180 = test: Antitumor activity against mouse Sarcoma-180 xenografted in mouse model assessed tumor growth inhibition relative to control; format: functional; parameters: scale not given: the % may be the effect or the level left
[16] = target: T1, Amine oxidase [flavin-containing] A (Rattus norvegicus, UniProt P21396); test: Inhibition of rat brain MAO-A relative to control; format: tissue-based
T1 sequence (P21396 whole entry): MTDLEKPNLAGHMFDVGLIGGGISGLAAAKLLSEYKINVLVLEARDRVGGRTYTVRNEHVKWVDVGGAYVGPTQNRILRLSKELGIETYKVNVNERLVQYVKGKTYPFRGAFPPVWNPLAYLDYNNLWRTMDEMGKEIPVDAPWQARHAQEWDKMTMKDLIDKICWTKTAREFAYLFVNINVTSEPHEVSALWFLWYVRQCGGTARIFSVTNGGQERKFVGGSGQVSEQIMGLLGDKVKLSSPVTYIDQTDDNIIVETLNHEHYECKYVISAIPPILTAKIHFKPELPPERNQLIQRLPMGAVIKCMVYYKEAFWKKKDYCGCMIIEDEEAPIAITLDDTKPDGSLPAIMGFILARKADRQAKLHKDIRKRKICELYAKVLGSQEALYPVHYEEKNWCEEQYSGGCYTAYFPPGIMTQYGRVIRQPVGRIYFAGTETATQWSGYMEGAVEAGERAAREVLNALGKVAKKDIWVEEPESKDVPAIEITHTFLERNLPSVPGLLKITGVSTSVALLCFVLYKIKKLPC

B16-F10 = test: Anticancer activity against mouse B16-F10 cells; format: functional, cell-based
HeLa [17] = test: Anticancer activity against human HeLa cells assessed as inhibition of cell proliferation; format: functional, cell-based
MDA-MB-231 = test: Anticancer activity against human MDA-MB-231 cells measured after 48 hrs by MTT assay; format: functional, cell-based; details: MDA-MB-231, 48 h
Ishikawa = test: Anticancer activity against human Ishikawa cells measured after 48 hrs by MTT assay; format: functional, cell-based
MCF7 [18] = test: Anticancer activity against human MCF7 cells measured after 48 hrs by MTT assay; format: functional, cell-based; details: MCF7, 48 h
LNCaP = test: Anticancer activity against human LNCaP cells measured after 48 hrs by MTT assay; format: functional, cell-based
DU-145 = test: Anticancer activity against human DU-145 cells measured after 48 hrs by MTT assay; format: functional, cell-based; details: DU-145, 48 h
HepG2 [19] = test: Anticancer activity against human HepG2 cells at 200 microg/ml measured after 48 hrs relative to control; format: functional
4T1 = test: Anticancer activity against mouse 4T1 cells at 200 microg/ml measured after 48 hrs relative to control; format: functional

## O=C(c1ccc(F)cc1)C1C(C(=O)c2ccc(F)cc2)C12C(=O)Nc1ccccc12 (stereo unspecified)
HeLa [1]
  IC50: 6.25 µM
HeLa [2]
  IC50: 11.2 µM

## CC(C)CCC[C@@H](C)[C@@H]1CCC2C3C[C@@]4(N=C5C=CC=CN5/C4=N\c4ccccc4)C4C[C@@H](Cl)CC[C@]4(C)C3CC[C@@]21C (stereo partly specified)
HT-29
  IC50: 2.18 µM
HepG2 [3]
  IC50: 5.32 µM
[4]
  IC50: 3.17 µM
A549 [5]
  IC50: 3.09 µM
MCF7 [6]
  IC50: 3.93 µM
HeLa [7]
  IC50: 5.41 µM
HL-60
  IC50: 2.62 µM
SW480
  IC50: 3420 nM

## COc1cccc(N2C(=O)C3(c4ccccc4NC4C(=O)CC(C)(C)CC43)C3C(=O)CC(C)(C)CC32)c1 (stereo unspecified)
MCF7 [8]
  IC50: 9.62 µM
PC-3
  IC50: 86.1 µM
A-431
  IC50: 55.6 µM
[9]
  IC50: 48.1 µM

## O=C1C(=O)C2C(N=C3N=NNN3C23C(=O)Nc2c(Cl)cccc23)c2ccccc21 (stereo unspecified)
L02
  IC50: 49.5 µM
HepG2 [10]
  IC50: 3030 nM

## O=C(/C=C/c1cccc(Br)c1)[C@H]1[C@H](c2cccc(Br)c2)C2CSCN2[C@]12C(=O)Nc1cc(Br)c(Br)cc12 (stereo partly specified)
HepG2 [11]
  IC50: 900 nM
HCT-116
  IC50: 1570 nM

## O=C1Nc2ccccc2C12CCNC2c1cccc(F)c1 (stereo unspecified)
MCF7 [12]
  EC50: 6 µM
[13]
  inhibition at 50 µM: 4.48%

## O=C1Nc2ccccc2C12CCNC2c1ccccc1 (stereo unspecified)
MCF7 [12]
  EC50: 3.53 µM
[13]
  inhibition at 50 µM: 0.08%

## C[C@]12CC[C@H](O)CC1=CCC1C2CC[C@@]2(C)C1CC[C@@H]2C1=CC2(C(=O)N(Cc3ccc(Cl)c(Cl)c3)c3ccccc32)C(C#N)=C(N)N1 (stereo partly specified)
SMMC-7721
  IC50: > 128 µM
MGC-803
  IC50: > 128 µM
A549 [14]
  IC50: > 128 µM

## O=C1/C(=C/c2ccc(Br)cc2)CCCC12[C@@H]1CCCN1[C@@]1(C(=O)Nc3ccccc31)[C@H]2c1ccc(Br)cc1 (stereo partly specified)
MCF7 [15]
  IC50: 15.5 µM
K562
  IC50: 15.8 µM

## CC(C)CCC[C@@H](C)[C@@H]1CCC2C3C[C@@]4(N=C5C=CC(Cl)=CN5/C4=N\Cc4ccccc4)C4C[C@@H](Cl)CC[C@]4(C)C3CC[C@@]21C (stereo partly specified)
HT-29
  IC50: 4.63 µM
HepG2 [3]
  IC50: 5.37 µM
[4]
  IC50: 4.67 µM
A549 [5]
  IC50: 3.43 µM
MCF7 [6]
  IC50: 3.24 µM
HeLa [7]
  IC50: 5.23 µM
HL-60
  IC50: 5.17 µM
SW480
  IC50: 2330 nM

## CCn1c(SCC(=O)Nc2ccccc2)nc2c(c1=O)C1(CCCCC1)Cc1ccccc1-2
Ehrlich
  Activity: 75%
Sarcoma-180
  Activity: 55%
[16]
  inhibition (INH): 32%

## O=C1/C(=C/c2c(Cl)cccc2Cl)CCCC12[C@@H]1CCCN1[C@@]1(C(=O)Nc3ccccc31)[C@H]2c1c(Cl)cccc1Cl (stereo partly specified)
MCF7 [15]
  IC50: 19.4 µM
K562
  IC50: 16.6 µM

## Cc1cc(Cl)ccc1[C@@H]1N(C)C2(CC13C(=O)N(C)C(=O)N(C)C3=O)C(=O)c1ccccc1C2=O
B16-F10
  IC50: 8.4 µM
HeLa [17]
  IC50: 434 µM

## CCn1c(SCc2ccc(Cl)cc2)nc2c(c1=O)C1(CCCCC1)Cc1ccccc1-2
Ehrlich
  Activity: 56%
Sarcoma-180
  Activity: 40%
[16]
  inhibition (INH): 50%

## O=C1NC2(C3=C(C(=O)C4C=CC=CC4C3=O)c3ccccc32)c2ccccc21 (stereo unspecified)
MDA-MB-231
  IC50: 6.88 µM
Ishikawa
  IC50: 1900 nM
MCF7 [18]
  IC50: 820 nM
LNCaP
  IC50: 0.67 µM
DU-145
  IC50: 2180 nM

## O=C1C(=O)C2C(N=C3N=NNN3C23C(=O)Nc2ccc(F)cc23)c2ccccc21 (stereo unspecified)
L02
  IC50: 58.9 µM
HepG2 [10]
  IC50: 2860 nM

## O=C1NC2(C3=C(C(=O)C4C=CC=CC4C3=O)c3cc(Cl)ccc32)c2ccccc21 (stereo unspecified)
MDA-MB-231
  IC50: 17.6 µM
Ishikawa
  IC50: 1390 nM
MCF7 [18]
  IC50: 5110 nM
LNCaP
  IC50: 5.34 µM
DU-145
  IC50: 1680 nM

## Cc1cn(CN2C(=O)C3(c4ccccc42)C(C(=O)c2ccc(F)cc2)C3C(=O)c2ccc(Cl)cc2)nn1 (stereo unspecified)
HeLa [1]
  IC50: 6.3 µM
HeLa [2]
  IC50: 11.2 µM

## Cc1ccc2c(c1)[C@]1(C(=O)N2)[C@@H](C(=O)c2ccccc2)[C@]2(C(=O)Nc3ccccc32)[C@@H]2c3ccccc3CCN21
HepG2 [19]
  inhibition at 200 µg/mL: 66.7%
4T1
  inhibition at 200 µg/mL: 20.8%
